Measured values taken from publication PMC9003339 (2022).

What was measured:
[1] = system: ATP aptamer (screened, 32 nt, 5'FAM modified) (DNA, aptamer) TGGCGTCTGCATGCAGGTCGACGCATGCGCCG; test: graphene oxide fluorescence assay, aptamer titrated at fixed ATP; conditions: 5 mM KCl, 100 mM NaCl, 1 mM MgCl2, 50 mM Tris-HCl pH 7.4, 25 °C, aptamer 50–500 nM, 1 μL of 100 mM in 200 μL
[2] = system: Functional chimera sequence (DNA, aptamer) TGGCGTCTGCATGCAGGTCGACGCATGCGCCGCCTGAGCTTAGAT; test: release from graphene oxide, PAGE; conditions: 5 mM KCl, 100 mM NaCl, 1 mM MgCl2; 50 mM Tris-HCl pH 7.4, 25 °C; chimera 2 μM, ATP 1 mM
[3] = system: Classic ATP aptamer (DNA, aptamer) ACCTGGGGGAGTATTGCGGAGGAAGGT; test: graphene oxide fluorescence recovery; conditions: 5 mM KCl, 100 mM NaCl, 1 mM MgCl2, 50 mM Tris-HCl pH 7.4, 25 °C, aptamer 300 nM
[4] = system: FAM-labeled functional chimera sequence (DNA, aptamer) TGGCGTCTGCATGCAGGTCGACGCATGCGCCGCCTGAGCTTAGAT; test: fluorescence recovery from graphene oxide; conditions: 5 mM KCl, 100 mM NaCl, 1 mM MgCl2; 50 mM Tris-HCl pH 7.4, 25 °C; chimera 2 μM, ATP 1 mM
[5] = system: ATP aptamer (screened, 32 nt, 5'FAM modified) (DNA, aptamer) TGGCGTCTGCATGCAGGTCGACGCATGCGCCG; test: graphene oxide fluorescence recovery; conditions: 5 mM KCl, 100 mM NaCl, 1 mM MgCl2, 50 mM Tris-HCl pH 7.4, 25 °C, aptamer 300 nM

SMILES: Nc1ncnc2c1ncn2[C@@H]1O[C@H](COP(=O)(O)OP(=O)(O)OP(=O)(O)O)[C@@H](O)[C@H]1O
- Kd [1]: 70.61 ± 20.91 nM
- binding [2]: yes
- binding ([3]; 1 μL of 100 mM ATP): yes
- binding [4]: yes

SMILES: Nc1ncnc2c1ncn2[C@@H]1O[C@H](COP(=O)(O)O)[C@@H](O)[C@H]1O
- binding ([5]; 1 μL of 100 mM AMP, ATP 4.7-fold higher): weak
- binding ([3]; 1 μL of 100 mM AMP): yes

SMILES: Nc1ncnc2c1ncn2[C@@H]1O[C@H](COP(=O)(O)OP(=O)(O)O)[C@@H](O)[C@H]1O
- binding ([5]; 1 μL of 100 mM ADP, ATP 2.4-fold higher): weak
- binding ([3]; 1 μL of 100 mM ADP): yes
